Results on ten compounds are retold here after patent publication US12435092B2, “Substituted imidazo[1,2-A]quinazolines as inhibitors of PARG” (858 Therapeutics, Inc., priority 2022, dated 2025).

What is called pIC50 is the negative decadic logarithm of the IC50, by convention in mol/L.

SMILES strings stand for the structures. pIC50: −log10 of the molar value. Bounds are passed on as bounds.

The assay addresses T1, cellular PARG (Homo sapiens, UniProt Q86W56).
T1 construct: endogenous in cells; host or cells: HeLa
Put plainly: Nuclear PAR accumulation assay (immunofluorescence high-content imaging). The class given is cell-based. Particulars: HeLa cells, 1 hour compound treatment then MMS 50 μg/mL for an additional hour. In short, it runs like this: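 HeLa cells pretreated 1 h at 37 °C with compound, then 1 h with 50 μg/mL MMS (final), methanol-fixed and immunostained for PAR with DAPI nuclear counterstain. Nuclear PAR intensity and percent PAR-positive cells quantified by high-content imaging (≥1,000 cells/well). IC50 by four-parameter logistic fit, normalized to 0.1% DMSO and reference-compound controls.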

T1 sequence (Q86W56 whole entry): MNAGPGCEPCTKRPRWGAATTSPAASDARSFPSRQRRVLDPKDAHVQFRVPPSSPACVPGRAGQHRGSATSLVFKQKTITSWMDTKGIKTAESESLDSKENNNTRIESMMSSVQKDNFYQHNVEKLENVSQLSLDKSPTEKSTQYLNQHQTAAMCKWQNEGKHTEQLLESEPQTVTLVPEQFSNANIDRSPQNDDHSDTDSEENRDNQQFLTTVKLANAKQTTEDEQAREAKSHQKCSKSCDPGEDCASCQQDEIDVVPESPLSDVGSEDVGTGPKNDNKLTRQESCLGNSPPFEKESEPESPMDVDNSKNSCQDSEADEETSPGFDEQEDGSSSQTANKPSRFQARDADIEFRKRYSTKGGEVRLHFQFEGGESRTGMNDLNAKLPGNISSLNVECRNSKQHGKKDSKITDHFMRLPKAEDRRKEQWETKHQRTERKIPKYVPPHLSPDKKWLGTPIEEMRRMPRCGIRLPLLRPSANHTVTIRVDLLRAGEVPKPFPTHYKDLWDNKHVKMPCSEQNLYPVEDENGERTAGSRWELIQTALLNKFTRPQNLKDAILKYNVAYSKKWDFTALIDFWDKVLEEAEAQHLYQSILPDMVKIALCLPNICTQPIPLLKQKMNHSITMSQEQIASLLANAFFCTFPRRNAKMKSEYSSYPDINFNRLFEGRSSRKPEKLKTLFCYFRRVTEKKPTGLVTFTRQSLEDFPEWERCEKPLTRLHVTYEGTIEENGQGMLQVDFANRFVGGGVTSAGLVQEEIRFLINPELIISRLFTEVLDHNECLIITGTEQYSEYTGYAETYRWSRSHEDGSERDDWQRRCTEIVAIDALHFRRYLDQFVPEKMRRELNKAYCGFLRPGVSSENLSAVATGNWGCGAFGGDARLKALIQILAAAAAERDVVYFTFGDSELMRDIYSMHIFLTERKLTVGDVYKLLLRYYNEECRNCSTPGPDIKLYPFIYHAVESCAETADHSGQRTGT

Consider `Cc1c(CN2C(=O)c3cc(S(=O)(=O)NC4(C)CC4)ccc3N3C2=NC[C@H]3C)cnn1C` [Example 81, (R)-4-((1,5-dimethyl-1H-pyrazol-4-yl)methyl)-1-methyl-N-(1-methylcyclopropyl)-5-oxo-1,2,4,5-tetrahydroimidazo[1,2-a]quinazoline-7-sulfonamide], for which the negative-log IC50 (pIC50) was not below 7.00.
Take `Cc1nc(C)c([C@@H]2CN=C3N(CC4CC4)C(=O)c4cc(S(=O)(=O)NC5(C)CC5)ccc4N32)s1` [Example 82, (S)-4-(cyclopropylmethyl)-1-(2,4-dimethylthiazol-5-yl)-N-(1-methylcyclopropyl)-5-oxo-1,2,4,5-tetrahydroimidazo[1,2-a]quinazoline-7-sulfonamide]: the pIC50 is 6.00 to 7.00.
The same measure for `Cn1cc(CN2C(=O)c3cc(S(=O)(=O)NC4(C)CC4)ccc3N3C2=NC[C@H]3C#CC2CC2)cn1` [Example 83, (R)-1-(cyclopropylethynyl)-4-((1-methyl-1H-pyrazol-4-yl)methyl)-N-(1-methylcyclopropyl)-5-oxo-1,2,4,5-tetrahydroimidazo[1,2-a]quinazoline-7-sulfonamide]: not below 7.00; for `Cn1cc(CN2C(=O)c3cc(S(=O)(=O)NC4(C)CC4)ccc3N3C2=NC[C@@H]3C#CC2CC2)cn1` [Example 84, (S)-1-(cyclopropylethynyl)-4-((1-methyl-1H-pyrazol-4-yl)methyl)-N-(1-methylcyclopropyl)-5-oxo-1,2,4,5-tetrahydroimidazo[1,2-a]quinazoline-7-sulfonamide]: 5.00 to 6.00.
`[2H]C([2H])(c1cnn(C)c1)N1C(=O)c2cc(S(=O)(=O)NC3(C)CC3)ccc2N2C1=N[C@H]1CCC[C@H]12` [Example 85, (7aS,10aR)-6-(dideutero(1-methyl-1H-pyrazol-4-yl)methyl)-N-(1-methylcyclopropyl)-5-oxo-6,7a,8,9,10,10a-hexahydro-5H-cyclopenta[4,5]imidazo[1,2-a]quinazoline-3-sulfonamide] gave a negative-log IC50 (pIC50) not below 7.00.
On to `[2H]C([2H])(c1cnn(C)c1)N1C(=O)c2cc(S(=O)(=O)NC3(C)CC3)c(F)cc2N2C1=NC[C@H]2C` [Example 86, (R)-4-(dideutero(1-methyl-1H-pyrazol-4-yl)methyl)-8-fluoro-1-methyl-N-(1-methylcyclopropyl)-5-oxo-1,2,4,5-tetrahydroimidazo[1,2-a]quinazoline-7-sulfonamide], for which the pIC50 is not below 7.00.
As to `[2H]C([2H])(c1cnn(C)c1)N1C(=O)c2cc(S(=O)(=O)NC3(C)CC3)ccc2N2C1=NC[C@H]2C(F)(F)F` [Example 87, (S)-4-(dideutero(1-methyl-1H-pyrazol-4-yl)methyl)-N-(1-methylcyclopropyl)-5-oxo-1-(trifluoromethyl)-1,2,4,5-tetrahydroimidazo[1,2-a]quinazoline-7-sulfonamide], the negative logarithm of the IC50 (pIC50) was not below 7.00.
The compound `[2H]C([2H])(c1cnn(C)c1)N1C(=O)c2cc(S(=O)(=O)NC3(C#N)CC3)ccc2N2C1=N[C@H]1CCC[C@H]12` [Example 88, (7aS,10aR)-N-(1-cyanocyclopropyl)-6-(dideutero(1-methyl-1H-pyrazol-4-yl)methyl)-5-oxo-6,7a,8,9,10,10a-hexahydro-5H-cyclopenta[4,5]imidazo[1,2-a]quinazoline-3-sulfonamide] had a pIC50 not below 7.00.
Next, `[2H]C([2H])(c1sc(C)nc1C)N1C(=O)c2cc(S(=O)(=O)NC3(C)CC3)ccc2N2C1=NC[C@H]2C` [Example 89, (R)-4-(dideutero(2,4-dimethylthiazol-5-yl)methyl)-1-methyl-N-(1-methylcyclopropyl)-5-oxo-1,2,4,5-tetrahydroimidazo[1,2-a]quinazoline-7-sulfonamide]: not below 7.00; `C[C@@H]1CN=C2N(Cc3cn(C)nn3)C(=O)c3cc(S(=O)(=O)NC4(C)CC4)ccc3N21` [Example 90, (R)-1-methyl-4-((1-methyl-1H-1,2,3-triazol-4-yl)methyl)-N-(1-methylcyclopropyl)-5-oxo-1,2,4,5-tetrahydroimidazo[1,2-a]quinazoline-7-sulfonamide]: 6.00 to 7.00.
